Reference: US20240058283A1, “THE MODE OF ACTION OF N-MeDCPA ON TRPC CHANNELS” (West Virginia University Board of Governors on Behalf of …, priority 2022, published 2024)

Experiments:
dopamine transporter = dopamine transporter (Homo sapiens, UniProt Q01959); experiment: Dopamine transport
Procedure: (§1) ELP-004 was evaluated for its ability to cross the blood brain barrier. […] Other medications, such as for example but not limited to bupropion are known to cause problems due to dopamine transporter binding.

[1] = Ability to cross the blood brain barrier
Procedure: as §1

rats = conditions: rat, in vivo
Mouse splenic monocytes = experiment: Osteoclast differentiation of mouse splenic monocytes; assay type: cell-based; conditions: 21 days of culture with RANKL+m-CSF; 100 nM ELP-004
Procedure: ELP-004 blocks TNF-α-induced osteoclast differentiation. Mouse splenic monocytes were induced to differentiate into osteoclasts. Results were obtained of osteoclast cells after 21 days of culture with RANKL+m-CSF alone or with the addition of 100 nM ELP-004. […] Thus, ELP-004 inhibits osteoclastogenesis.

TRPC3 = molecular target: T1, TRPC3 (Homo sapiens, UniProt Q13507); experiment: OAG-induced Ca2+ entry in Fura2-loaded HEK293 cells expressing TRPC3; assay type: cell-based; conditions: ELP-004 0 to 1 mM for 10 minutes before OAG, FIG. 1D, read-out: IC50, inhibition of OAG-induced Ca2+ entry
T1 construct: expressed in transfected cells
T1 sequence (Q13507 1-921): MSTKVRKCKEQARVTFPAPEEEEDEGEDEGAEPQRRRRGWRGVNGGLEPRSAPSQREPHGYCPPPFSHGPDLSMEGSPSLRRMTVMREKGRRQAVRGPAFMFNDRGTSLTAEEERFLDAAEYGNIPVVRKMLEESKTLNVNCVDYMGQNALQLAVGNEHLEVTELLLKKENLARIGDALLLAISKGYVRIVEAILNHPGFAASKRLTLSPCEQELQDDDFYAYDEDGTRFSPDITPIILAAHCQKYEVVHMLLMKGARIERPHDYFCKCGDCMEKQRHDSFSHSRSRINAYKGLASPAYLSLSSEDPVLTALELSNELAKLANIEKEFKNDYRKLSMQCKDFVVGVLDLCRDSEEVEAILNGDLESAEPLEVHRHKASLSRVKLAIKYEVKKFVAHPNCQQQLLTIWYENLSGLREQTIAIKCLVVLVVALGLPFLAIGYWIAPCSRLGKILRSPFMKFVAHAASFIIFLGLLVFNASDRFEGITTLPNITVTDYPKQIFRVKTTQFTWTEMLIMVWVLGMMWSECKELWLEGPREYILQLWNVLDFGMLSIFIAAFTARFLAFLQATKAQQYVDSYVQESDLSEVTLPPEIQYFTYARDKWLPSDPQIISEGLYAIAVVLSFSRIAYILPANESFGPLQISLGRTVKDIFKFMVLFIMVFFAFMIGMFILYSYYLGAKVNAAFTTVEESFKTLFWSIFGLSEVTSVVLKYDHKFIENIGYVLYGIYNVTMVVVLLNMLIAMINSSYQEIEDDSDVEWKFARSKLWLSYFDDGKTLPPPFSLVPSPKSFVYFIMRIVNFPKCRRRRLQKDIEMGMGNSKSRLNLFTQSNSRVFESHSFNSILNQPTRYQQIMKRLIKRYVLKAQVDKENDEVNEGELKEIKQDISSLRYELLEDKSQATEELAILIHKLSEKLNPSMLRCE
Procedure: Inhibition of DAG-mediated TRPC activation. To determine if ELP-004 (N-MeDCPA) inhibits DAG-induced TRPC activation, HEK293 cells expressing TRPC3, TRPC6 or TRPC7 were loaded with Fura2 and incubated with ELP-004 (0 to 1 mM) for 10 minutes prior to challenging with 1-Oleoyl-2-acetyl-sn-glycerol (OAG), a membrane permeable form of diacylglycerol.
Cell Culture—HEK293 cells were grown in DMEM with 4.5 g/L glucose supplemented with 10% FBS and 1% Gentamycin (Full DMEM media; Thermo-Fisher Scientific, Waltham, MA) at 37° C. and 5% CO2. […]
TRPC activity assay—Cells grown on glass coverslips were incubated in a cation-safe buffer (107 mM NaCl, 7.2 mM KCl, 1.2 mM MgCl2, 11.5 mM Glucose, 20 mM HEPES-NaOH, 1 mM CaCl2), pH 7.2) and loaded with Fura2-acetoxymethylester (Fura2-AM; 2 μM) for 30 min at 24° C. as previously described^10,11. […] Ca^2+/Sr^2+ measurements were taken using a Leica DMI 6000B fluorescence microscope controlled by Slidebook software (Intelligent Imaging Innovations, Denver, CO). Fluorescence emission at 505 nm was monitored in response to excitation at alternating 340 nm and 380 nm wavelengths at a frequency of 0.67 Hz; intracellular Ca^2+ measurements are shown at 340/380 nm ratios obtained from groups of 35-45 single cells.

Sequence of dopamine transporter (Q01959 whole entry): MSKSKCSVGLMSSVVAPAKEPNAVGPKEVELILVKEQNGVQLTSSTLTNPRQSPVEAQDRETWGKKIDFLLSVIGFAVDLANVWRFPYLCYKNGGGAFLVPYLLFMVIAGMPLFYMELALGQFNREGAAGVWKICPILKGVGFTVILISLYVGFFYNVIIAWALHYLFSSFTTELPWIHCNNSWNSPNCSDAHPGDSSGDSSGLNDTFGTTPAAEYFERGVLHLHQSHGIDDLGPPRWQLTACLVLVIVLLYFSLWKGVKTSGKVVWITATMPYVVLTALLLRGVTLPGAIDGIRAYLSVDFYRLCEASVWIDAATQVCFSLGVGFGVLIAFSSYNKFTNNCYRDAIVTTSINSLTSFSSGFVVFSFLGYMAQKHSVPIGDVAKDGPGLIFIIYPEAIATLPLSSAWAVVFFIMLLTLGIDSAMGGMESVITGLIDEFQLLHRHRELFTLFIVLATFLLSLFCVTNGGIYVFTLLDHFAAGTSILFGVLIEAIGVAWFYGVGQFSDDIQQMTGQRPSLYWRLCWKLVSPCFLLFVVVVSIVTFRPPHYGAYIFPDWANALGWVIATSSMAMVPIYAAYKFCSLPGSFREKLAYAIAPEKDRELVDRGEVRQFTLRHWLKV

CCC(=O)N(C)c1ccc(Cl)c(Cl)c1 [ELP-004, N-(3,4-dichlorophenyl)-N-methylpropanamide]
problems with dopamine transport (dopamine transporter): does not cause problems with dopamine transport
crossing of the blood brain barrier [1]: does not cross the blood brain barrier
oral LD50 (rats): > 2.5 g/kg body weight
development of multinucleated osteoclasts (Mouse splenic monocytes): inhibited development of multinucleated osteoclasts
IC50 (TRPC3): 1000 to 2000 nM
